Results: US7041700B2, “Substituted benzopyran derivatives against arrhythmia” (Nissan Chemical Industries, Ltd., priority 2001, dated 2006)

What was measured:
Atrium = assay: Effects on the effective refractory period, atrium (anesthetized beagles, vagal nerve stimulation, S1-S2 extrastimulus); type: in vivo; settings: 0.3 mg/kg intravenously, from 5 min after administration, basic cycle length 300 msec, bilateral vagal nerve stimulation, ERP after minus before drug
Experimental: (§1) Effects on the Effective Refractory Period
(§2) Beagles were anesthetized with pentobarbital sodium and thoracotomy was done along the median line under a respirator and the incision was made on the pericardium to expose the heart. ECG was recorded using bipolar electrodes attached to the surface of the right atrial free wall, right atrial auricle, and right ventricular free wall. The vagal nerves were stimulated using an electrostimulation device with Nichrome wires inserted into the vagal nerves in the neck bilaterally. The conditions for electrostimulation to the vagal nerves were set such that the RR intervals on ECG were prolonged by about 100 msec compared with those before the stimulation was started.
(§3) Atrial and ventricular effective refractory periods were determined by S1-S2 extrastimulus technique at basic cycle length of 300 msec during bilateral vagal nerve stimulation, using programmable electric stimulator. A train of 10 basic stimuli (S1) was followed by a premature extrastimulus (S2) at 2 times diastolic threshold.
(§4) For evaluation of drug effects, the atrial and ventricular effective refractory periods were determined before drug administration, then respective compound was administrated intravenously at the dose of 0.3 mg/kg, and the atrial and ventricular effective refactory periods were determined from 5 min after the administration.
(§5) The results were shown as the prolongation time on the atrial and ventricular effective refractory periods, i.e. [effective refractory period after drug administration]−[effective refactory period before drug administration] (msec).

Ventricle = assay: Effects on the effective refractory period, ventricle (anesthetized beagles, vagal nerve stimulation, S1-S2 extrastimulus); type: in vivo; settings: 0.3 mg/kg intravenously, from 5 min after administration, basic cycle length 300 msec, bilateral vagal nerve stimulation, ERP after minus before drug
Experimental: as §1, §2, §3, §4, §5

Structure (SMILES) | prolongation time on the effective refractory period (msec) Atrium (Atrium) [ms] | prolongation time on the effective refractory period (msec) Ventricle (Ventricle) [ms]
CC1(C)Oc2ccc(C(N)=O)cc2[C@H](NCCc2ccccc2)[C@H]1O [compound 3] | 21 | 4
CC1(C)Oc2ccc(C(N)=O)cc2[C@H](NCCc2ccc(F)cc2)[C@H]1O [compound 4] | 23 | -10
Cc1ccc2c(c1)[C@H](NCCc1ccc(Cl)cc1)[C@@H](O)C(C)(C)O2 [compound 2] | 23 | 4
CC1(C)Oc2cc([N+](=O)[O-])ccc2[C@H](NCCc2ccccc2)[C@H]1O [compound 6] | 36 | 9
